In patent publication EP3150203B1, “COMPOUNDS WITH (1E,6E)-1,7-BIS-(3,4- DIMETHOXYPHENYL)-4,4-DISSTITUTED-HEPA-1,6-DIENE-3,5-DI-ONE STRUCTURAL SCAFFOLD,THEIR BIOLOGICAL ACTIVITY, AND USES THEREOF” (Allianz Pharmascience Ltd, priority 2012, dated 2013):
Like-named read-outs stand apart in the source and are kept apart here. Blank lines part the entries; values can stand above or below the molecule they belong to.

How the values were obtained:
Androgen Receptor (AR) = biological target: T1, Androgen Receptor (AR) (Homo sapiens, UniProt P10275, H875Y, form not given); assay: Western Blot analysis of AR protein expression in CWR22Rv1 cells; assay type: cell-based; conditions: for IC50: Western blotting
T1 sequence (P10275 1-920 H875Y): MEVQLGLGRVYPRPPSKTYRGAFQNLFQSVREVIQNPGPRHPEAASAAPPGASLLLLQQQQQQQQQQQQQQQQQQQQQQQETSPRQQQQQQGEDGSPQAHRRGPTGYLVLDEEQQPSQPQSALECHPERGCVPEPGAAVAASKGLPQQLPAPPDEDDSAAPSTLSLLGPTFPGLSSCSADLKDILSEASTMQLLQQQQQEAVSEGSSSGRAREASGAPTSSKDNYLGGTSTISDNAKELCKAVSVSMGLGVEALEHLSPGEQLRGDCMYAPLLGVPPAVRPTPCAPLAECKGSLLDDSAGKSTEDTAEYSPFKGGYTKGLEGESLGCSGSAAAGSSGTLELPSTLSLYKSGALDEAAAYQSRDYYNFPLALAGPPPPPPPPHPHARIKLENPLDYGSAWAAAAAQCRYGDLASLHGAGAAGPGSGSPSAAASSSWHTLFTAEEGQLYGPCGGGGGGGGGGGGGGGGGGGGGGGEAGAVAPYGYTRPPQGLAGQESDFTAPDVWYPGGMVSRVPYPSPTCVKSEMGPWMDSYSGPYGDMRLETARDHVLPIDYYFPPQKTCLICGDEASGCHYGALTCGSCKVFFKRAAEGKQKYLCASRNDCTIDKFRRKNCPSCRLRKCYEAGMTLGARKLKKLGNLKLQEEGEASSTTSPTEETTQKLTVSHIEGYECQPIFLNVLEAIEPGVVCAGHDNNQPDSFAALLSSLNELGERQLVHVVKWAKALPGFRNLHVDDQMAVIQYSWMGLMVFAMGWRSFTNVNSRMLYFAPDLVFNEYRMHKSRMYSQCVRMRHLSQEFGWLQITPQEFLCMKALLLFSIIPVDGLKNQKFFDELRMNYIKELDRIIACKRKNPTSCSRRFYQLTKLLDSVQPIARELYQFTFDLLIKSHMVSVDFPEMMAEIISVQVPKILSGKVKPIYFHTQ

[1] = test system: CWR22Rv1 cells (human prostate cancer); assay: MTT cell growth assay, CWR22Rv1 cells; assay type: cell-based; conditions: 5 days, read-out: Inhibition of Tumor cells growth IC50
Procedure: The MTT cell proliferation assay was applied in the present invention to detect the capability of compounds to suppress or inhibit prostate cancer cells growth. […] Briefly, 1 x 10^3 LNCaP or CWR22Rv1 cells suspended in complete medium were plated into each well of a 96-well Microtest III tissue culture plate (Falcon, NJ). Two days later, the medium was replaced with RPMI-1640 medium containing 10% charcoal/dextran-deprived FBS (hormone-deprived fetal bovine serum). Testing compounds were added to the medium at indicated concentrations with or without 1 nM DHT and cells were cultured for 5 days in an incubator (at 37 °C). MTT substrate solution (5 mg/ml in PBS) in 1/10 of volume was added to the cells in each well at 2 hours before harvesting. After 2 hour incubation, the plates were centrifuged (10 min at 1,000 rpm) and the supernatant from each well was carefully removed. A 100 µl of lysis buffer (50% dimethyl formamide, 5% sodium dodecyl sulphate, 0.35 M acetic acid, and 50 mM HCl) was added to each well to lyse the cells and dissolved tetrazolium in each well. The relative quantity of enzyme activity from each well was measured based on absorbance read at a wavelength of 450 nm using a Bio-RAD BenchMark microplate reader. Data derived from the MTT assay were also verified by the actual cell count and cell morphology on a separate plate set up in parallel.
For inhibition of tumor cell growth, in vitro, cells were growth in the presence of testing compounds for 5 days, and the cell growth was assayed by standard MTT assay. […] Table 2: Biological activity of Compounds and Derivatives having (1E, 6E)-1,7-bis-(3,4-dimethoxyphenyl)-4,4-disubstituted-hepta-1,6-diene-3,5-dione OR (1E, 10E)-1,11-bis(substituted phenyl)- 6,6-disubstituted undeca-1,3,8,10-tetraene-5,7-dione structural scaffold

[2] = Stability in rat plasma (37°C); assay type: in vitro ADME
Excerpt: (§1) Also, at 24 hr where stability of JM49 was only 4%, while its derivative Compound 6 had improved to 79%. Similar improvements in stability (from 6- 24 hr) were also observed in the conditions of rat plasma (Table 4) and human plasma (Table 5). […] Table 3. Relative compound concentration changes (stability) in acidic condition

[3] = Stability in human plasma (37°C); assay type: in vitro ADME; conditions: result in words (Table 5 not given)
Excerpt: as §1

[4] = Stability in acidic condition (0.1 N HCl, 37°C); assay type: physicochemical
Excerpt: as §1

[5] = 48 h post-incubation, read-out: Reduction of AR expression IC50 (µM) 48 h
[6] = 24 h post-incubation, read-out: Reduction of AR expression IC50 (µM) 24 h

Structure (SMILES): COc1ccc(/C=C/C(=O)C(C)(CC2CC2)C(=O)/C=C/c2ccc(OC)c(OC)c2)cc1OC [Compound 1]
IC50 (Androgen Receptor (AR); [5]): 2.1 µM | IC50 [1]: 2.4 µM

IC50 ([1]; Homo sapiens, 120 h): > 7.5 µM
Structure (SMILES): COc1ccc(/C=C/C(=O)C(C)(CC2CCC2)C(=O)/C=C/c2ccc(OC)c(OC)c2)cc1OC [Compound 2]

IC50 ([1]; Homo sapiens, 120 h): 2.6 µM
Structure (SMILES): COc1ccc(/C=C/C(=O)C(C)(CC2CCCC2)C(=O)/C=C/c2ccc(OC)c(OC)c2)cc1OC [Compound 4]

Structure (SMILES): COc1ccc(/C=C/C(=O)C(C)(CC2CCCCC2)C(=O)/C=C/c2ccc(OC)c(OC)c2)cc1OC [Compound 5]
IC50 (Androgen Receptor (AR); [5]): 4 µM | IC50 [1]: 4.6 µM

IC50 ([1]; Homo sapiens, 120 h): 1.5 µM | Concentration change (%) (stability) in rat plasma ([2]; 0 h): 100% | Concentration change (%) (stability) in rat plasma ([2]; 1 h): 98% | Concentration change (%) (stability) in rat plasma ([2]; 2 h): 96% | Concentration change (%) (stability) in rat plasma ([2]; 6 h): 93% | Concentration change (%) (stability) in rat plasma ([2]; 24 h): 77% | Concentration change (%) (stability) in rat plasma ([2]; 48 h): 51% | stability in human plasma [3]: unexpectedly and dramatically improved | Concentration change (%) (stability) in acidic condition ([4]; 0 h): 100% | Concentration change (%) (stability) in acidic condition ([4]; 2 h): 100% | Concentration change (%) (stability) in acidic condition ([4]; 4 h): 99% | Concentration change (%) (stability) in acidic condition ([4]; 24 h): 79% | Concentration change (%) (stability) in acidic condition ([4]; 48 h): 56%
Structure (SMILES): CCN(CC)C(=O)CC(C)(C(=O)/C=C/c1ccc(OC)c(OC)c1)C(=O)/C=C/c1ccc(OC)c(OC)c1 [Compound 6]

IC50 ([1]; Homo sapiens, 120 h): 2 µM | Concentration change (%) (stability) in rat plasma ([2]; 0 h): 100% | Concentration change (%) (stability) in rat plasma ([2]; 1 h): 101% | Concentration change (%) (stability) in rat plasma ([2]; 2 h): 100% | Concentration change (%) (stability) in rat plasma ([2]; 6 h): 101% | Concentration change (%) (stability) in rat plasma ([2]; 24 h): 99% | Concentration change (%) (stability) in rat plasma ([2]; 48 h): 86% | stability in human plasma [3]: unexpectedly and dramatically improved | Concentration change (%) (stability) in acidic condition ([4]; 0 h): 100% | Concentration change (%) (stability) in acidic condition ([4]; 1 h): 99% | Concentration change (%) (stability) in acidic condition ([4]; 2 h): 99% | Concentration change (%) (stability) in acidic condition ([4]; 4 h): 98% | Concentration change (%) (stability) in acidic condition ([4]; 24 h): 81% | Concentration change (%) (stability) in acidic condition ([4]; 48 h): 58%
Structure (SMILES): COc1ccc(/C=C/C(=O)C(C)(CC(=O)N(C)C)C(=O)/C=C/c2ccc(OC)c(OC)c2)cc1OC [Compound 7]

IC50 ([1]; Homo sapiens, 120 h): 2.3 µM
Structure (SMILES): CCCCC(C)(C(=O)/C=C/c1ccc(OC)c(OC)c1)C(=O)/C=C/c1ccc(OC)c(OC)c1 [Compound 8]

Structure (SMILES): COc1ccc(/C=C/C(=O)C(C)(CC(=O)N2CCOCC2)C(=O)/C=C/c2ccc(OC)c(OC)c2)cc1OC [Compound 11]
IC50 (Androgen Receptor (AR); [6]): 2.2 µM

IC50 ([1]; Homo sapiens, 120 h): > 5 µM
Structure (SMILES): COc1ccc(/C=C/C(=O)C(F)(CC2CC2)C(=O)/C=C/c2ccc(OC)c(OC)c2)cc1OC [Compound 13]

IC50 ([1]; Homo sapiens, 120 h): 3.6 µM
Structure (SMILES): COc1ccc(/C=C/C(=O)C(F)(CC2CCC2)C(=O)/C=C/c2ccc(OC)c(OC)c2)cc1OC [Compound 14]

IC50 ([1]; Homo sapiens, 120 h): 3.2 µM
Structure (SMILES): COc1ccc(/C=C/C(=O)C(F)(CC2CCCC2)C(=O)/C=C/c2ccc(OC)c(OC)c2)cc1OC [Compound 15]

IC50 ([1]; Homo sapiens, 120 h): 4 µM
Structure (SMILES): COc1ccc(/C=C/C(=O)C(F)(CC2CCCCC2)C(=O)/C=C/c2ccc(OC)c(OC)c2)cc1OC [Compound 16]

IC50 ([1]; Homo sapiens, 120 h): > 7.5 µM
Structure (SMILES): CCN(CC)C(=O)CC(F)(C(=O)/C=C/c1ccc(OC)c(OC)c1)C(=O)/C=C/c1ccc(OC)c(OC)c1 [Compound 17]

Structure (SMILES): COc1ccc(/C=C/C(=O)C(F)(CC(=O)N(C)C)C(=O)/C=C/c2ccc(OC)c(OC)c2)cc1OC [Compound 18]
IC50 (Androgen Receptor (AR); [6]): > 5 µM | IC50 [1]: > 7.5 µM

IC50 ([1]; Homo sapiens, 120 h): 4.7 µM
Structure (SMILES): CCCCC(F)(C(=O)C=Cc1ccc(OC)c(OC)c1)C(=O)C=Cc1ccc(OC)c(OC)c1 (stereo not shown) [Compound 19]

IC50 ([1]; Homo sapiens, 120 h): 4 µM
Structure (SMILES): CCN(CC)C(=O)CC(Cl)(C(=O)/C=C/c1ccc(OC)c(OC)c1)C(=O)/C=C/c1ccc(OC)c(OC)c1 [Compound 20]

IC50 ([1]; Homo sapiens, 120 h): > 7.5 µM
Structure (SMILES): COc1ccc(/C=C/C(=O)C(Cl)(CC(=O)N(C)C)C(=O)/C=C/c2ccc(OC)c(OC)c2)cc1OC [Compound 21]

Structure (SMILES): CCOC(=O)CCC(C)(C(=O)/C=C/c1ccc(OC)c(OC)c1)C(=O)/C=C/c1ccc(OC)c(OC)c1 [Compound 22]
IC50 (Androgen Receptor (AR); [6]): 1.8 µM

Structure (SMILES): CCOC(=O)CCC(F)(C(=O)/C=C/c1ccc(OC)c(OC)c1)C(=O)/C=C/c1ccc(OC)c(OC)c1 [Compound 23]
IC50 (Androgen Receptor (AR); [6]): > 5 µM

Structure (SMILES): CCN(CC)C(=O)CC(C)(C(=O)C=CC=Cc1ccc(OC)c(OC)c1)C(=O)C=CC=Cc1ccc(OC)c(OC)c1 (stereo not shown) [Compound 32]
IC50 (Androgen Receptor (AR); [6]): 2.8 µM

Structure (SMILES): CCN(CC)C(=O)CC(C(=O)/C=C/c1ccc(OC)c(OC)c1)C(=O)/C=C/c1ccc(OC)c(OC)c1 [JM49]
reducing endogenous AR expression (Androgen Receptor (AR); various concentrations, Western Blot (FIG. 6)): capable of reducing endogenous AR expression | Concentration change (%) (stability) in rat plasma ([2]; 0 h): 100% | Concentration change (%) (stability) in rat plasma ([2]; 1 h): 68% | Concentration change (%) (stability) in rat plasma ([2]; 2 h): 54% | Concentration change (%) (stability) in rat plasma ([2]; 6 h): 27% | Concentration change (%) (stability) in rat plasma ([2]; 24 h): 2% | Concentration change (%) (stability) in rat plasma ([2]; 48 h): 0% | stability in human plasma [3]: chemically unstable | Concentration change (%) (stability) in acidic condition ([4]; 0 h): 100% | Concentration change (%) (stability) in acidic condition ([4]; 1 h): 73% | Concentration change (%) (stability) in acidic condition ([4]; 2 h): 56% | Concentration change (%) (stability) in acidic condition ([4]; 6 h): 38% | Concentration change (%) (stability) in acidic condition ([4]; 24 h): 4%

Concentration change (%) (stability) in rat plasma ([2]; 0 h): 100% | Concentration change (%) (stability) in rat plasma ([2]; 1 h): 93% | Concentration change (%) (stability) in rat plasma ([2]; 2 h): 88% | Concentration change (%) (stability) in rat plasma ([2]; 6 h): 73% | Concentration change (%) (stability) in rat plasma ([2]; 24 h): 27% | Concentration change (%) (stability) in rat plasma ([2]; 48 h): 7% | stability in human plasma [3]: chemically unstable | Concentration change (%) (stability) in acidic condition ([4]; 0 h): 100% | Concentration change (%) (stability) in acidic condition ([4]; 1 h): 14% | Concentration change (%) (stability) in acidic condition ([4]; 2 h): 8% | Concentration change (%) (stability) in acidic condition ([4]; 6 h): 0% | Concentration change (%) (stability) in acidic condition ([4]; 24 h): 0%
Structure (SMILES): COc1ccc(/C=C/C(=O)C(CC(=O)N(C)C)=C(O)/C=C/c2ccc(OC)c(OC)c2)cc1OC [JM77]
